The results in this text go back to patent US20110086759A1, “CHEMICAL COMPOUNDS” (SYNGENTA CROP PROTECTION, INC., priority 2007, published 2011).

What all share (format): in vivo
In test [1] the test system is Alopecurus myosuroides (ALOMY). Kind of test: Pre-emergence biological efficacy, glasshouse pot test. The following applies: 312 h, pre-emergence, rate 1,000 g/ha, evaluated after 13 days (100=total damage to plant; 0=no damage), read-out: Percentage damage caused to weed species, ALOMY. An outline of the steps: (§1)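 Sow seeds in pots of standard soil; after one day in the glasshouse, spray test compound (1000 or 250 g/ha) in aqueous acetone/water with 0.5% Tween 20. Grow 13 days at 24/16 °C day/night, then score damage from 0 to 100.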

The subject of test [2] is Amaranthus retoflexus (AMARE). The description is as above. Particulars: Amaranthus retroflexus, 312 h; pre-emergence, rate 1,000 g/ha, evaluated after 13 days (100=total damage to plant; 0=no damage); read-out: Percentage damage caused to weed species, AMARE. An outline of the steps:
as §1

For test [3], the system named is Echinochloa crus-galli (ECHCG). Described as above. The following applies: 312 h, pre-emergence, rate 1,000 g/ha, evaluated after 13 days (100=total damage to plant; 0=no damage), read-out: Percentage damage caused to weed species, ECHCG. An outline of the steps:
as §1

The subject of test [4] is Ipomea hederaceae (IPOHE). The test is described as above. The following applies: Ipomoea hederacea, 312 h; pre-emergence, rate 1,000 g/ha, evaluated after 13 days (100=total damage to plant; 0=no damage); read-out: Percentage damage caused to weed species, IPOHE. An outline of the steps: as §1
The test system of test [5] is Setaria faberi (SETFA). Described as above. Particulars: 312 h, pre-emergence, rate 1,000 g/ha, evaluated after 13 days (100=total damage to plant; 0=no damage), read-out: Percentage damage caused to weed species, SETFA. An outline of the steps:
as §1

Test [6] deals with Solanum nigrum (SOLNI). The test is described as above. Particulars: 312 h, pre-emergence, rate 1,000 g/ha, evaluated after 13 days (100=total damage to plant; 0=no damage), read-out: Percentage damage caused to weed species, SOLNI. An outline of the steps: as §1
The subject of test [7] is Alopecurus myosuroides (ALOMY). Kind of test: Post-emergence biological efficacy, glasshouse pot test. The following applies: 312 h, Rate 1,000 g/ha, post-emergence spray, evaluated after 13 days (100=total damage to plant; 0=no damage to plant), read-out: Percentage damage caused to weed species, post-emergence, ALOMY. Summed up: (§2)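 Scored 13 days after spraying on a 0 (no damage) to 100 (total damage) scale. Treatment was a post-emergence spray at 1000 or 250 g/ha, from acetone/water 50:50 plus 0.5% Tween 20, onto 8-day-old plants in soil pots. Growth at 24/16° C, 14 h photoperiod, 65% humidity, watered twice daily.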

Test [8] concerns Amaranthus retoflexus (AMARE). Described as above. The following applies: Amaranthus retroflexus, 312 h; Rate 1,000 g/ha; post-emergence spray; evaluated after 13 days (100=total damage to plant; 0=no damage to plant); read-out: Percentage damage caused to weed species, post-emergence, AMARE. An outline of the steps: as §2
Test [9] concerns Echinochloa crus-galli (ECHCG). Described as above. The following applies: 312 h, Rate 1,000 g/ha, post-emergence spray, evaluated after 13 days (100=total damage to plant; 0=no damage to plant), read-out: Percentage damage caused to weed species, post-emergence, ECHCG. An outline of the steps:
as §2

For test [10], the system named is Ipomea hederaceae (IPOHE). The description is as above. The following applies: Ipomoea hederacea, 312 h; Rate 1,000 g/ha; post-emergence spray; evaluated after 13 days (100=total damage to plant; 0=no damage to plant); read-out: Percentage damage caused to weed species, post-emergence, IPOHE. An outline of the steps: as §2
In test [11] the test system is Setaria faberi (SETFA). Described as above. Particulars: 312 h, Rate 1,000 g/ha, post-emergence spray, evaluated after 13 days (100=total damage to plant; 0=no damage to plant), read-out: Percentage damage caused to weed species, post-emergence, SETFA. An outline of the steps: as §2
Test [12] deals with Solanum nigrum (SOLNI). The description is as above. Particulars: 312 h, Rate 1,000 g/ha, post-emergence spray, evaluated after 13 days (100=total damage to plant; 0=no damage to plant), read-out: Percentage damage caused to weed species, post-emergence, SOLNI. An outline of the steps:
as §2

The structures appear in SMILES notation.

Turning to `COC(=O)c1nc(C2CC2)nc(N(C)Cc2ccc(C)o2)c1Cl` [Compound 5-135, 5-Chloro-2-cyclopropyl-6-methoxycarbonyl-4-[N-methyl-N-(5-methylfuran-2-ylmethyl)-amino]-pyrimidine], the pest or weed control at 1000 g/ha was found to be 30% in test [1]; 100% in test [2]; 0% in test [3]; 100% in test [4]; 10% in [5]; 90% in [6]. Further, the pest or weed control at 1000 g/ha in test [7] was 30%; in test [8], 100%; in test [9], 40%; in [10], 100%; in test [11] it was 80%; in [12], 90%.

As to `COC(=O)c1nc(C2CC2)nc(N(C)Cc2nonc2C)c1Cl` [Compound 5-149, 5-Chloro-2-cyclopropyl-6-methoxycarbonyl-4-[N-methyl-N-(4-methyl-1,2,5-oxadiazol-3-ylmethyl)-amino]-pyrimidine], the pest or weed control at 1000 g/ha in test [1] amounted to 30%; in [2], 80%; in [3] it was 20%; in test [4], 80%; in test [5], 10%; in test [6], 40%. Also, the pest or weed control at 1000 g/ha was found to be 40% in test [7]; 100% in test [8]; 40% in [9]; 90% in [10]; 80% in test [11]; 90% in [12].

Turning to `COC(=O)c1nc(C2CC2)nc(N(C)Cc2cccnc2)c1Cl` [Compound 5-156, 5-Chloro-2-cyclopropyl-6-methoxycarbonyl-4-(N-methyl-N-pyridin-3-ylmethyl-amino)pyrimidine], the pest or weed control at 1000 g/ha in test [1] was determined as 10%; in test [2], 90%; in test [3], 0%; in [4] it was 60%; in [5] it was 0%; in test [6], 20%. Besides, the pest or weed control at 1000 g/ha in test [7] came out at 30%; in test [8], 100%; in [9] it was 20%; in test [10], 80%; in test [11], 60%; in test [12], 80%.

With `COC(=O)c1nc(C2CC2)nc(N(C)Cc2ccncc2)c1Cl` [Compound 5-160, 5-Chloro-2-cyclopropyl-6-methoxycarbonyl-4-(N-methyl-N-pyridin-4-ylmethyl-amino)pyrimidine], the pest or weed control at 1000 g/ha in test [1] was 0%; in test [2], 80%; in test [3] it was 20%; in test [4], 70%; in test [5] it was 0%; in test [6], 40%. The pest or weed control at 1000 g/ha came to 20% in [7]; 100% in [8]; 0% in test [9]; 100% in test [10]; 60% in test [11]; 80% in [12].

With `COC(=O)c1nc(C2CC2)nc(N(C)CCc2ccccc2)c1Cl` [Compound 5-221, 5-Chloro-2-cyclopropyl-6-methoxycarbonyl-4-[(N-methyl)-N-(2-phenylethyl)-amino]pyrimidine], the pest or weed control at 1000 g/ha in test [1] worked out at 0%; in test [2] it was 30%; in [3], 0%; in [4] it was 40%; in [5] it was 0%; in [6] it was 30%. Besides, the pest or weed control at 1000 g/ha in test [7] came to 10%; in test [8], 100%; in [9], 30%; in test [10], 100%; in [11], 40%; in test [12], 80%.

For `COC(=O)c1nc(C2CC2)nc(N(C)CCc2ccccn2)c1Cl` [Compound 5-228, 5-Chloro-2-cyclopropyl-6-methoxycarbonyl-4-[N-methyl-N-(2-pyrid-2-ylethyl)-amino]pyrimidine], the pest or weed control at 1000 g/ha in [1] was 0%; in test [2], 80%; in test [3], 0%; in test [4], 0%; in test [5], 0%; in [6] it was 70%. The pest or weed control at 1000 g/ha in [7] came out at 20%; in test [8], 100%; in test [9] it was 30%; in [10], 90%; in [11] it was 40%; in [12], 70%.

`COC(=O)c1nc(C2CC2)nc(N(C)CC(O)c2ccccc2)c1Cl` (stereo not drawn) [Compound 5-257, 5-Chloro-2-cyclopropyl-4-[N-(2-hydroxy-2-phenyl-ethyl)-N-methyl-amino]-6-methoxy-carbonylpyrimidine]: the pest or weed control at 1000 g/ha in [1] amounted to 10%; in test [2], 100%; in test [3], 30%; in [4], 50%; in [5], 10%; in [6] it was 100%. Moreover, the pest or weed control at 1000 g/ha turned out to be 20% in test [7]; 100% in [8]; 30% in test [9]; 80% in test [10]; 50% in test [11]; 80% in test [12].

With `COC(=O)c1nc(C2CC2)nc(N(C)C(C)C(O)c2ccccc2)c1Cl` (stereo not drawn) [Compound 5-270, 5-Chloro-2-cyclopropyl-4-[N-(2-hydroxy-1-methyl-2-phenyl-ethyl)-N-methyl-amino]-6-methoxycarbonyl-pyrimidine], the pest or weed control at 1000 g/ha worked out at 10% in test [1]; 90% in test [2]; 0% in [3]; 20% in [4]; 0% in [5]; 50% in test [6]. Further, the pest or weed control at 1000 g/ha was 10% in test [7]; 90% in test [8]; 0% in [9]; 90% in test [10]; 30% in test [11]; 80% in test [12].
